Key:
[1] = system: primary mouse hepatocytes; assay: mRNA expression by real-time PCR in primary mouse hepatocytes; assay type: cell-based; details: for mRNA expression of SREBP-1c and FAT/CD36: overexpression, oleic acid, FIG. 7B
Description: HepG2 cells and primary mouse hepatocytes were separately seeded in a 6-well plate at a density of 4×10^5 cells per each well, and then treated with 200 μM of oleic acid (OA) for 72 hours. For mRNA extraction, the corresponding cells were lysed with 1 ml/well of TRIzol (Invitrogen), 200 μl of chloroform was added thereto and mixed well, the resultant cells were maintained at room temperature for 5 minutes and then centrifuged at 12,000×g and 4° C. for 15 minutes, the obtained supernatant was mixed with 500 μl of isopropanol and then put on ice for 10 minutes, the resulting supernatant was centrifuged at 12,000×g and 4° C. for 15 minutes to remove a supernatant, and then pellets were dissolved with tertiary distilled water treated with diethyl pyrocarbonate (DEPC). 2 μg of mRNA was synthesized into cDNA using a Superscript First Strand cDNA Synthesis Kit (Bioneer, Daejeon, South Korea) and the synthesized cDNA as a template was amplified through polymerase chain reaction (PCR) using primers specific to PPARγ2, 14-3-3β, 14-3-3γ, SREBP-1c, SCD-1, ACC, FABP, FAT/CD36, and β-actin of humans, and was amplified through real-time PCR using primers specific to PPARγ2, 14-3-3β, 14-3-3γ, SREBP-1c, FAT/CD36, and GAPDH of mice. β-actin and GAPDH were used as controls to see whether mRNAs of the respective cells were compared in the same amount.
HepG2 cells were seeded in a 6-well plate at a density of 4×10^5 cells per each well, and then transfected with GFP-14-3-3β DNA (4 μg) or GFP-14-3-3γ DNA (4 μg) using an E-fection plus reagent (Lugen). A ratio of DNA to the E-fection plus reagent was 1:2, and this method was performed according to a manufacturer's manual. After transfection, the cells were treated with 200 μM of oleic acid (OA) for 72 hours, and for mRNA extraction, the corresponding cells were lysed with 1 ml/well of TRIzol (Invitrogen), 200 μl of chloroform was added thereto and mixed well, the resultant cells were maintained at room temperature for 5 minutes and then centrifuged at 12,000×g and 4° C. for 15 minutes, the obtained supernatant was mixed with 500 μl of isopropanol and then put on ice for 10 minutes, and the resulting supernatant was centrifuged at 12,000×g and 4° C. for 15 minutes to remove a supernatant, and then pellets were dissolved with tertiary distilled water treated with diethyl pyrocarbonate (DEPC). 2 μg of mRNA was synthesized into cDNA using a Superscript First Strand cDNA Synthesis Kit (Bioneer, Daejeon, South Korea) and the synthesized cDNA as a template was amplified through polymerase chain reaction (PCR) using primers specific to PPARγ2 (SEQ ID NOS: 1 and 2), 14-3-3β (SEQ ID NOS: 3 and 4), 14-3-3γ (SEQ ID NOS: 5 and 6), SREBP-1c, FAT/CD36, and β-actin of humans, and was amplified through real-time PCR using primers specific to SREBP-1c, FAT/CD36, and GAPDH of mice. β-actin and GAPDH were used as controls to see whether mRNAs of the respective cells were compared in the same amount.

[2] = biological target: T1, PPARγ2 S273A mutant (Homo sapiens, UniProt P37231, S273A); assay: GST-pull down assay with PPARγ2 S273A mutant; assay type: binding; details: FIGS. 4A and 4B
T1 construct: expressed in transfected cells; host or cells: HEK-293T
T1 sequence (P37231 1-505 S273A): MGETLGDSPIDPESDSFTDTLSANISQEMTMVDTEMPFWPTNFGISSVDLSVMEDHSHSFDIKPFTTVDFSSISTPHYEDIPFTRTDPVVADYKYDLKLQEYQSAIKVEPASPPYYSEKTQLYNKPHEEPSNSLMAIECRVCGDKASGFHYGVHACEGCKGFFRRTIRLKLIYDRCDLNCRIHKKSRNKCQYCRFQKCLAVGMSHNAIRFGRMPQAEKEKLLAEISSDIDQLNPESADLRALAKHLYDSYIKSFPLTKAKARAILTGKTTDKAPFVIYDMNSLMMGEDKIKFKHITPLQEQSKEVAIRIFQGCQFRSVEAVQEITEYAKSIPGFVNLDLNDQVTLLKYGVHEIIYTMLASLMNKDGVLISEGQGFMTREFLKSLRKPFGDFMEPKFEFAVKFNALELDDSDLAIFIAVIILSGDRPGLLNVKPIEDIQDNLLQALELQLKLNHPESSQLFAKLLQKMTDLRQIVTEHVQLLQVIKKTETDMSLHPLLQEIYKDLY
Description: 14-3-3 proteins are known to bind to phosphorylated residues of a target protein. Phosphorylated residues associated with the activity of PPARγ2 are known to be serine 112 and serine 273. Thus, PPARγ2 mutants (PPARγ2 S112A and S273A) with non-phosphorylated serine 112 and serine 273 residues were produced and binding thereof with 14-3-3 proteins was verified through GST-pull down assay.
HEK-293T cells were seeded in a 100 mm plate at a density of 2×10^6 cells per each well, and then transfected with Flag-PPARγ2 (WT) DNA (4 μg), Flag-PPARγ2 (S112A) DNA (4 μg), Flag-PPARγ2 (S273A) DNA (4 μg), and mGST-14-3-3β (4 μg) or mGST-14-3-3γ (4 μg) using an E-fection plus reagent (Lugen). As for Flag-PPARγ2 (S112A) DNA and Flag-PPARγ2 (S273A) DNA, DNA fragments amplified through polymerase chain reaction (PCR) were cloned into a Flag-tagged vector. A ratio of DNA to the E-fection plus reagent was 1:2, and this method was performed according to a manufacturer's manual. The corresponding cells were washed with ice-cold PBS and lysed using 500 μl/well of a lysis buffer (150 mM NaCl, 1 mM EDTA, 1% Nonidet P-40, 5% glycerol, 25 mM tris-HCl, pH 7.5, protease inhibitor added), and the lysed cells were centrifuged at 10,000×g and 4° C. for 10 minutes to extract proteins. […]

| Compound | mRNA expression of SREBP-1c and FAT/CD36 [1] | binding with PPARγ2 S273A mutant [2] | mRNA expression of PPARγ2 ([1]; oleic acid concentration-dependent, FIG. 6B) | mRNA expression of lipid metabolism-associated genes (PPARγ2 target genes) ([1]; oleic acid concentration-dependent, FIG. 6D) | mRNA expression amounts of 14-3-3β and 14-3-3γ ([1]; oleic acid treatment, FIG. 6B) |
| --- | --- | --- | --- | --- | --- |
| 14-3-3γ: 14-3-3 isoform protein overexpressed by DNA transfection; decreases the transcriptional activity of PPARγ2; proposed active ingredient | reduced | suppressed | – | – | – |
| CCCCCCCC/C=C\CCCCCCCC(=O)O [oleic acid] | – | – | increased | increased | no changes |
| 14-3-3β: 14-3-3 isoform protein overexpressed by DNA transfection; increases the transcriptional activity of PPARγ2 by binding to PPARγ2 | further increased | suppressed | – | – | – |
